We go through 20 compounds from patent US9062071B2, “Substituted piperidines as HDM2 inhibitors” (Merck Sharp & Dohme Corp, priority 2011, dated 2015).

One may read the IC50 as the midpoint of a concentration-inhibition curve.

Each structure is given as a SMILES string.

HDM2 protein, sequence (Q00987 whole entry): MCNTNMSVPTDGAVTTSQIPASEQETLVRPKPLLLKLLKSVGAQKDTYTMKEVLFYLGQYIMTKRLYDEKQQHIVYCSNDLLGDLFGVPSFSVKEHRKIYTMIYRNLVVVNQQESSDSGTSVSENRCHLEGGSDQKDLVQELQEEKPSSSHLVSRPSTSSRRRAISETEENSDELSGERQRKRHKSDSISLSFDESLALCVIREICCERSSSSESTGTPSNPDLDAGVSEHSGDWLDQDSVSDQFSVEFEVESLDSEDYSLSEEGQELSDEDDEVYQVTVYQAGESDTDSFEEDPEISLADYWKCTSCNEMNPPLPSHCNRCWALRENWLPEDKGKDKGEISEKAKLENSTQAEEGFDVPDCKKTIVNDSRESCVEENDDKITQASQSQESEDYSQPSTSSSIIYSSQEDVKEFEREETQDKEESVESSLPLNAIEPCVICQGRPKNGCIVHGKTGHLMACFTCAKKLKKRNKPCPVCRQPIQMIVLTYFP

The assay has as its target HDM2 protein (Homo sapiens, UniProt Q00987). The assay is described as follows: fluorescence polarization screening assay (FP IC50). The format is binding. The conditions noted are these: class symbols. The procedure: The compounds were evaluated to determine activity at the HDM2 protein by known methods such as the fluorescence polarization screening assay that measures the inhibitory concentration that achieves 50% of maximal activity (FP IC50) and the dissociation constant for inhibitor binding (FP Ki). [Zhang et al., J. Analytical Biochemistry 331: 138-146 (2004)].
In turn, `CCC[C@H]1N(C(=O)c2ncccc2C(F)(F)F)CCC[C@@]1(Oc1csc(C(F)(F)F)c1)C(=O)N1CCc2cc(Cl)ccc2C1C#N` (stereo partly drawn) [Compound A76, 6-chloro-2-{[(2R,3S)-2-propyl-1-{[3-(trifluoromethyl)pyridin-2-yl]carbonyl}-3-{[5-(trifluoromethyl)thiophen-3-yl]oxy}piperidin-3-yl]carbonyl}-1,2,3,4-tetrahydroisoquinoline-1-carbonitrile] yielded an IC50 of 101 to 20000 nM.
`CCC[C@H]1N(C(=O)c2ncccc2C(F)(F)F)CCC[C@@]1(Oc1csc(C(F)(F)F)c1)C(=O)N1CCc2cc(Cl)ccc2C1C(N)=O` (stereo partly drawn) [Compound A77, 6-chloro-2-{[(2R,3S)-2-propyl-1-{[3-(trifluoromethyl)pyridin-2-yl]carbonyl}-3-{[5-(trifluoromethyl)thiophen-3-yl]oxy}piperidin-3-yl]carbonyl}-1,2,3,4-tetrahydroisoquinoline-1-carboxamide]: the IC50 was in the range of 1 to 100 nM.
`CCC[C@H]1N(C(=O)c2ncccc2C(F)(F)F)CCC[C@@]1(Oc1csc(C(F)(F)F)c1)C(=O)N1CCc2cc(Cl)ccc2C1C#N` (stereo partly drawn) [Compound A78, 6-chloro-2-{[(2R,3S)-2-propyl-1-{[3-(trifluoromethyl)pyridin-2-yl]carbonyl}-3-{[5-(trifluoromethyl)thiophen-3-yl]oxy}piperidin-3-yl]carbonyl}-1,2,3,4-tetrahydroisoquinoline-1-carbonitrile] showed an IC50 of 101 to 20000 nM.
Take `CCC[C@H]1N(C(=O)c2ncccc2C(F)(F)F)CCC[C@@]1(Oc1csc(C(F)(F)F)c1)C(=O)N1CCc2cc(Cl)ccc2[C@H]1CCC(=O)NC#N` [Compound A79, 3-[(1R)-6-chloro-2-{[(2R,3S)-2-propyl-1-{[3-(trifluoromethyl)pyridin-2-yl]carbonyl}-3-{[5-(trifluoromethyl)thiophen-3-yl]oxy}piperidin-3-yl]carbonyl}-1,2,3,4-tetrahydroisoquinolin-1-yl]-N-cyanopropanamide]: the IC50 lay within 1 to 100 nM.
Consider `CCC[C@H]1N(C(=O)c2ncccc2C(F)(F)F)CCC[C@@]1(Oc1csc(C(F)(F)F)c1)C(=O)N1CCc2cc(Cl)ccc2[C@@H]1CCC(=O)NC#N` [Compound A80, 3-[(1S)-6-chloro-2-{[(2R,3S)-2-propyl-1-{[3-(trifluoromethyl)pyridin-2-yl]carbonyl}-3-{[5-(trifluoromethyl)thiophen-3-yl]oxy}piperidin-3-yl]carbonyl}-1,2,3,4-tetrahydroisoquinolin-1-yl]-N-cyanopropanamide], for which the IC50 is 1 to 100 nM.
As for `CCC[C@H]1N(C(=O)c2ncccc2C(F)(F)F)CCC[C@@]1(Oc1csc(C(F)(F)F)c1)C(=O)N1CCc2cc(Cl)ccc2C1CC(=O)N1CCNC(=O)C1` (stereo partly drawn) [Compound A81, 4-[(6-chloro-2-{[(2R,3S)-2-propyl-1-{[3-(trifluoromethyl)pyridin-2-yl]carbonyl}-3-{[5-(trifluoromethyl)thiophen-3-yl]oxy}piperidin-3-yl]carbonyl}-1,2,3,4-tetrahydroisoquinolin-1-yl)acetyl]piperazin-2-one], the figure is 1 to 100 nM; as for `CCC[C@H]1N(C(=O)c2ncccc2C(F)(F)F)CCC[C@@]1(Oc1csc(C(F)(F)F)c1)C(=O)N1CCc2cc(Cl)ccc2C1CC(=O)N1CCC(O)CC1` (stereo partly drawn) [Compound A82, 1-[(6-chloro-2-{[(2R,3S)-2-propyl-1-{[3-(trifluoromethyl)pyridin-2-yl]carbonyl}-3-{[5-(trifluoromethyl)thiophen-3-yl]oxy}piperidin-3-yl]carbonyl}-1,2,3,4-tetrahydroisoquinolin-1-yl)acetyl]piperidin-4-ol], 1 to 100 nM; as for `CCC[C@H]1N(C(=O)c2ncccc2C(F)(F)F)CCC[C@@]1(Oc1csc(C(F)(F)F)c1)C(=O)N1CCc2cc(N(C)C)ccc2C1` [Compound A83, N,N-dimethyl-2-{[(2R,3S)-2-propyl-1-{[3-(trifluoromethyl)pyridin-2-yl]carbonyl}-3-{[5-(trifluoromethyl)thiophen-3-yl]oxy}piperidin-3-yl]carbonyl}-1,2,3,4-tetrahydroisoquinolin-6-amine], 101 to 20000 nM.
As for `CCC[C@H]1N(C(=O)c2ncccc2C(F)(F)F)CCC[C@@]1(Oc1csc(C(F)(F)F)c1)C(=O)N1CCc2cc(Cl)ccc2C1CC(=O)N1CCNC(=O)C1` (stereo partly drawn) [Compound A84, 4-[(6-chloro-2-{[(2R,3S)-2-propyl-1-{[3-(trifluoromethyl)pyridin-2-yl]carbonyl}-3-{[5-(trifluoromethyl)thiophen-3-yl]oxy}piperidin-3-yl]carbonyl}-1,2,3,4-tetrahydroisoquinolin-1-yl)acetyl]piperazin-2-one], the half-maximal inhibitory concentration (IC50) fell in the range of 1 to 100 nM.
`CCC[C@H]1N(C(=O)c2ncccc2C(F)(F)F)CCC[C@@]1(Oc1csc(C(F)(F)F)c1)C(=O)N1CCc2cc(Cl)ccc2C1CC(=O)N1CCC(O)CC1` (stereo partly drawn) [Compound A85, 1-[(6-chloro-2-{[(2R,3S)-2-propyl-1-{[3-(trifluoromethyl)pyridin-2-yl]carbonyl}-3-{[5-(trifluoromethyl)thiophen-3-yl]oxy}piperidin-3-yl]carbonyl}-1,2,3,4-tetrahydroisoquinolin-1-yl)acetyl]piperidin-4-ol] displayed an IC50 of 1 to 100 nM.
`CCC[C@H]1N(C(=O)c2ncccc2C(F)(F)F)CCC[C@@]1(Oc1csc(C(F)(F)F)c1)C(=O)N1CCc2c(ccc(Cl)c2Cl)C1` [Compound A86, 5,6-dichloro-2-{[(2R,3S)-2-propyl-1-{[3-(trifluoromethyl)pyridin-2-yl]carbonyl}-3-{[5-(trifluoromethyl)thiophen-3-yl]oxy}piperidin-3-yl]carbonyl}-1,2,3,4-tetrahydroisoquinoline] yielded an IC50 of 101 to 20000 nM.
`CCC[C@H]1N(C(=O)c2ncccc2C(F)(F)F)CCC[C@@]1(Oc1csc(C(F)(F)F)c1)C(=O)N1CCc2cc(Cl)c(Cl)cc2C1` [Compound A87, 6,7-dichloro-2-{[(2R,3S)-2-propyl-1-{[3-(trifluoromethyl)pyridin-2-yl]carbonyl}-3-{[5-(trifluoromethyl)thiophen-3-yl]oxy}piperidin-3-yl]carbonyl}-1,2,3,4-tetrahydroisoquinoline] had a half-maximal inhibitory concentration (IC50) of 101 to 20000 nM.
`CCC[C@H]1N(C(=O)c2ncccc2C(F)(F)F)CCC[C@@]1(Oc1csc(C(F)(F)F)c1)C(=O)N1CCc2cc(SC)ccc2C1` [Compound A88, 6-(methylsulfanyl)-2-{[(2R,3S)-2-propyl-1-{[3-(trifluoromethyl)pyridin-2-yl]carbonyl}-3-{[5-(trifluoromethyl)thiophen-3-yl]oxy}piperidin-3-yl]carbonyl}-1,2,3,4-tetrahydroisoquinoline] had a 50% inhibitory concentration (IC50) of 101 to 20000 nM.
`CCC[C@H]1N(C(=O)c2ncccc2C(F)(F)F)CCC[C@@]1(Oc1csc(C(F)(F)F)c1)C(=O)N1CCc2cc(C(N)=O)ccc2C1` [Compound A89, 2-{[(2R,3S)-2-propyl-1-{[3-(trifluoromethyl)pyridin-2-yl]carbonyl}-3-{[5-(trifluoromethyl)thiophen-3-yl]oxy}piperidin-3-yl]carbonyl}-1,2,3,4-tetrahydroisoquinoline-6-carboxamide] showed an IC50 of 101 to 20000 nM.
Under `CCC[C@H]1N(C(=O)c2ncccc2C(F)(F)F)CCC[C@@]1(Oc1csc(C(F)(F)F)c1)C(=O)N1CCc2cc(S(C)(=O)=O)ccc2C1` [Compound A90, 6-(methylsulfonyl)-2-{[(2R,3S)-2-propyl-1-{[3-(trifluoromethyl)pyridin-2-yl]carbonyl}-3-{[5-(trifluoromethyl)thiophen-3-yl]oxy}piperidin-3-yl]carbonyl}-1,2,3,4-tetrahydroisoquinoline] stands 101 to 20000 nM.
Compound `CCC[C@H]1N(C(=O)c2ncccc2C(F)(F)F)CCC[C@@]1(Oc1csc(C(F)(F)F)c1)C(=O)N1CCc2cc(Cl)ccc2[C@H]1CCC(=O)N1CCN(CCO)CC1` [Compound A91, 2-(4-{3-[(1R)-6-chloro-2-{[(2R,3S)-2-propyl-1-{[3-(trifluoromethyl)pyridin-2-yl]carbonyl}-3-{[5-(trifluoromethyl)thiophen-3-yl]oxy}piperidin-3-yl]carbonyl}-1,2,3,4-tetrahydroisoquinolin-1 - yl]propanoyl}piperazin-1-yl)ethanol] displayed a concentration for half-maximal inhibition (IC50) of 1 to 100 nM.
For `CCC[C@H]1N(C(=O)c2ncccc2C(F)(F)F)CCC[C@@]1(Oc1csc(C(F)(F)F)c1)C(=O)N1CCc2cc(Cl)ccc2C1C(=O)N1CCN(CCO)CC1` (stereo partly drawn) [Compound A92, 2-{4-[(6-chloro-2-{[(2R,3S)-2-propyl-1-{[3-(trifluoromethyl)pyridin-2-yl]carbonyl}-3-{[5-(trifluoromethyl)thiophen-3-yl]oxy}piperidin-3-yl]carbonyl}-1,2,3,4-tetrahydroisoquinolin-1-yl)carbonyl]piperazin-1-yl}ethanol], the IC50 was 101 to 20000 nM.
As to `CCC[C@H]1N(C(=O)c2ncccc2C(F)(F)F)CCC[C@@]1(Oc1csc(C(F)(F)F)c1)C(=O)N1CCc2cc(F)ccc2C1C(=O)N1CCN(CCO)CC1` (stereo partly drawn) [Compound A93, 2-{4-[(6-fluoro-2-{[(2R,3S)-2-propyl-1-{[3-(trifluoromethyl)pyridin-2-yl]carbonyl}-3-{[5-(trifluoromethyl)thiophen-3-yl]oxy}piperidin-3-yl]carbonyl}-1,2,3,4-tetrahydroisoquinolin-1-yl)carbonyl]piperazin-1-yl}ethanol], the IC50 lay within 1 to 100 nM.
For `CCC[C@H]1N(C(=O)c2ncccc2C(F)(F)F)CCC[C@@]1(Oc1csc(C(F)(F)F)c1)C(=O)N1CCc2cc(F)ccc2C1C(=O)N1CCN(CCO)CC1` (stereo partly drawn) [Compound A94, 2-{4-[(6-fluoro-2-{[(2R,3S)-2-propyl-1-{[3-(trifluoromethyl)pyridin-2-yl]carbonyl}-3-{[5-(trifluoromethyl)thiophen-3-yl]oxy}piperidin-3-yl]carbonyl}-1,2,3,4-tetrahydroisoquinolin-1-yl)carbonyl]piperazin-1-yl}ethanol], the half-inhibitory concentration (IC50) was in the range of 101 to 20000 nM.
The compound `NC(=O)C1c2ccc(Cl)cc2CCN1C(=O)[C@]1(Oc2csc(C(F)(F)F)c2)CCCN(C(=O)c2ncccc2C(F)(F)F)[C@@H]1CC(=O)O` (stereo partly drawn) [Compound A95, [(2R,3S)-3-[(1-carbamoyl-6-chloro-3,4-dihydroisoquinolin-2(1H)-yl)carbonyl]-1-{[3-(trifluoromethyl)pyridin-2-yl]carbonyl}-3-{[5-(trifluoromethyl)thiophen-3-yl]oxy}piperidin-2-yl]acetic acid] came in with a half-inhibitory concentration (IC50) of 1 to 100 nM.
